Measurements published in US10160729B2, “Hsp70 modulators and methods for making and using the same” (Memorial Sloan Kettering Cancer Center, priority 2014, dated 2018).

These compounds were tested on MOLM-13 cells (assay: Caspase cleavage assay (Caspase3, 7 activation)). Details: Homo sapiens, 16 h treatment, caspase substrate Z-DEVD-R110, read-out: c* Concentration at which 50% of the maximum signal was achieved (caspase activation).
Format: cell-based
Protocol: Caspase3, 7 Activation. MOLM-13 cells (30,000 cells/well) were plated in black 96-well plates (Corning Cat. #3603) in 40 μL of RPMI media, and left in an incubator (37° C., 5% CO2) for up to 24 h. Cells were treated for 16 h with compounds or DMSO (control) at desired concentrations in 50 μL of media. Drugs were added in triplicate wells. Following exposure of cells to Hsp70 inhibitors, 50 μL of buffer containing 10 mM HEPES (pH 7.5), 2 mM EDTA, 0.1% CHAPS and the caspase substrate Z-DEVD-R110 at 25 μM was added to each well. Plates were incubated until the signal stabilized and then the fluorescence signal of each well was measured in an Analyst GT microplate reader. The percentage increase in apoptotic cells was calculated by comparison of the fluorescence reading obtained from treated versus control cells.

| SMILES | EC50 |
| --- | --- |
| CN1CCN(c2ncc(Sc3ccc(C(N)=O)cc3)c(OCc3cccc(N(C)C)c3)n2)CC1 [100a, 4-((4-((3-(Dimethylamino)benzyl)oxy)-2-(4-methylpiperazin-1-yl)pyrimidin-5-yl)thio)benzamide] | < 0.2 µM |
| CN1CCN(c2ncc(Sc3ccc(C(N)=O)cc3)c(OCc3cccc(N4CCCC4)c3)n2)CC1 [100b, 4-((2-(4-Methylpiperazin-1-yl)-4-((3-(pyrrolidin-1-yl)benzyl)oxy)pyrimidin-5-yl)thio)benzamide] | 0.2 to 0.4 µM |
| CN1CCN(c2ncc(Sc3ccc(C(N)=O)cc3)c(OCc3ccc(F)c(N(C)C)c3)n2)CC1 [100c, 4-((4-((3-(Dimethylamino)-4-fluorobenzyl)oxy)-2-(4-methylpiperazin-1-yl)pyrimidin-5-yl)thio)benzamide] | < 0.2 µM |
| CC(Oc1nc(N2CCN(C)CC2)ncc1Sc1ccc(C(N)=O)cc1)c1cccc(N(C)C)c1 (centres unmarked) [100d, 4-((4-(1-(3-(Dimethylamino)phenyl)ethoxy)-2-(4-methylpiperazin-1-yl)pyrimidin-5-yl)thio)benzamide] | ≥ 1.2 µM |
| CN1CCN(c2ncc(Sc3ccc(C(N)=O)cc3)c(OCc3cccc(NC4CC4)c3)n2)CC1 [100e, 4-((4-((3-(Cyclopropylamino)benzyl)oxy)-2-(4-methylpiperazin-1-yl)pyrimidin-5-yl)thio)benzamide] | < 0.2 µM |
| CN1CCN(c2ncc(Sc3ccc(C(N)=O)cc3)c(OCc3cccc(-n4cccn4)c3)n2)CC1 [100f, 4-((4-((3-(1H-Pyrazol-1-yl)benzyl)oxy)-2-(4-methylpiperazin-1-yl)pyrimidin-5-yl)thio)benzamide] | 0.4 to 1 µM |
| COc1cccc(COc2nc(N3CCN(C)CC3)ncc2Sc2ccc(C(N)=O)cc2)c1 [100g, 4-((4-((3-Methoxybenzyl)oxy)-2-(4-methylpiperazin-1-yl)pyrimidin-5-yl)thio)benzamide] | < 0.2 µM |
| CN1CCN(c2ncc(Sc3ccc(C(N)=O)cc3)c(OCCc3ccccc3)n2)CC1 [100h, 4-((2-(4-Methylpiperazin-1-yl)-4-phenethoxypyrimidin-5-yl)thio)benzamide] | 0.2 to 0.4 µM |
| CN1CCN(c2ncc(Sc3ccc(C(N)=O)cc3)c(OCc3ccco3)n2)CC1 [100i, 4-((4-(Furan-2-ylmethoxy)-2-(4-methylpiperazin-1-yl)pyrimidin-5-yl)thio)benzamide] | 0.4 to 1 µM |
| CN1CCN(c2ncc(Sc3ccc(C(N)=O)cc3)c(OCc3ccoc3)n2)CC1 [100j, 4-((4-(Furan-3-ylmethoxy)-2-(4-methylpiperazin-1-yl)pyrimidin-5-yl)thio)benzamide] | 0.2 to 0.4 µM |
| CN1CCN(c2ncc(Sc3ccc(C(N)=O)cc3)c(OCc3ccc(F)cc3)n2)CC1 [100m, 4-((4-((4-Fluorobenzyl)oxy)-2-(4-methylpiperazin-1-yl)pyrimidin-5-yl)thio)benzamide] | 0.2 to 0.4 µM |
| C[C@H](Oc1nc(N2CCN(C)CC2)ncc1Sc1ccc(C(N)=O)cc1)c1ccc(F)cc1 [100n, (S)-4-((4-(1-(4-Fluorophenyl)ethoxy)-2-(4-methylpiperazin-1-yl)pyrimidin-5-yl)thio)benzamide] | ≥ 1.2 µM |
| C[C@@H](Oc1nc(N2CCN(C)CC2)ncc1Sc1ccc(C(N)=O)cc1)c1ccc(F)cc1 [100o, (R)-4-((4-(1-(4-Fluorophenyl)ethoxy)-2-(4-methylpiperazin-1-yl)pyrimidin-5-yl)thio)benzamide] | ≥ 1.2 µM |
| CC(=O)c1cccc(COc2nc(N3CCN(C)CC3)ncc2Sc2ccc(C(N)=O)cc2)c1 [100q, 4-((4-((3-Acetylbenzyl)oxy)-2-(4-methylpiperazin-1-yl)pyrimidin-5-yl)thio)benzamide] | 0.4 to 1 µM |
| CN1CCN(c2ncc(Sc3ccc(C(N)=O)cc3)c(OCc3ccnc(N)c3)n2)CC1 [100r, 4-((4-((2-Aminopyridin-4-yl)methoxy)-2-(4-methylpiperazin-1-yl)pyrimidin-5-yl)thio)benzamide] | 1 to 1.2 µM |
| CN1CCN(c2ncc(Sc3ccc(C(N)=O)cc3)c(OCc3cccc(I)c3)n2)CC1 [100s, 4-((4-((3-Iodobenzyl)oxy)-2-(4-methylpiperazin-1-yl)pyrimidin-5-yl)thio)benzamide] | 0.2 to 0.4 µM |
| [2H]c1c([2H])c([2H])c(COc2nc(N3CCN(C)CC3)ncc2Sc2ccc(C(N)=O)cc2)c([2H])c1[2H] [100t, 4-((4-(Benzyloxy-d5)-2-(4-methylpiperazin-1-yl)pyrimidin-5-yl)thio)benzamide] | 0.4 to 1 µM |
| [2H]C([2H])(Oc1nc(N2CCN(C)CC2)ncc1Sc1ccc(C(N)=O)cc1)c1ccccc1 [100u, 4-((4-(Benzyloxy-d2)-2-(4-methylpiperazin-1-yl)pyrimidin-5-yl)thio)benzamide] | 0.4 to 1 µM |
| CN1CCN(c2ncc(Sc3ccc(C(N)=O)cc3)c(OCc3ccc(I)cc3)n2)CC1 [100v, 4-((4-((4-Iodobenzyl)oxy)-2-(4-methylpiperazin-1-yl)pyrimidin-5-yl)thio)benzamide] | ≥ 1.2 µM |
| CN1CCN(c2ncc(Sc3ccc(C(N)=O)cc3)c(OCc3cccc(C(N)=O)c3)n2)CC1 [100w, 3-(((5-((4-Carbamoylphenyl)thio)-2-(4-methylpiperazin-1-yl)pyrimidin-4-yl)oxy)methyl)benzamide] | 0.4 to 1 µM |
| CN1CCN(c2ncc(Sc3ccc(C(N)=O)cc3)c(OCc3cccc(N)c3)n2)CC1 [100x, 4-((4-((3-Aminobenzyl)oxy)-2-(4-methylpiperazin-1-yl)pyrimidin-5-yl)thio)benzamide] | < 0.2 µM |
| CN1CCN(c2ncc(Sc3ccc(N)nc3)c(OCc3ccc(F)cc3)n2)CC1 [146c, 5-((4-((4-Fluorobenzyl)oxy)-2-(4-methylpiperazin-1-yl)pyrimidin-5-yl)thio)pyridin-2-amine] | 0.2 to 0.4 µM |
| CN1CCN(c2ncc(Sc3ccc(N)nc3)c(OCc3cccc(C(F)(F)F)c3)n2)CC1 [146e, 5-((2-(4-Methylpiperazin-1-yl)-4-((3-(trifluoromethyl)benzyl)oxy)pyrimidin-5-yl)thio)pyridin-2-amine] | 0.4 to 1 µM |

More lines, now with the values ahead:

| EC50 | SMILES |
| --- | --- |
| ≥ 1.2 µM | NC(=O)c1ccc(Sc2cnc(N3CCOCC3)nc2OCc2ccccc2)cc1 [179a] |
| ≥ 1.2 µM | CN(C)[C@H]1CCN(c2ncc(Sc3ccc(C(N)=O)cc3)c(OCc3ccccc3)n2)C1 [179c, (S)-4-((4-(Benzyloxy)-2-(3-(dimethylamino)pyrrolidin-1-yl)pyrimidin-5-yl)thio)benzamide] |
| 1 to 1.2 µM | CN(C)c1cccc(COc2nc(N3CCOCC3)ncc2Sc2ccc(C(N)=O)cc2)c1 [185a, 4-((4-((3-(Dimethylamino)benzyl)oxy)-2-morpholinopyrimidin-5-yl)thio)benzamide] |
| 1 to 1.2 µM | CC(C)N1CCN(c2ncc(Sc3ccc(C(N)=O)cc3)c(OCc3cccc(N(C)C)c3)n2)CC1 [185b, 4-((4-((3-(Dimethylamino)benzyl)oxy)-2-(4-isopropylpiperazin-1-yl)pyrimidin-5-yl)thio)benzamide] |
| 0.4 to 1 µM | CN(C)c1cccc(COc2nc(N3CCN(CCO)CC3)ncc2Sc2ccc(C(N)=O)cc2)c1 [185d, 4-((4-((3-(Dimethylamino)benzyl)oxy)-2-(4-(2-hydroxyethyl)piperazin-1-yl)pyrimidin-5-yl)thio)benzamide] |
| < 0.2 µM | C#CCCCCN1CCN(c2ncc(Sc3ccc(C(N)=O)cc3)c(OCc3cccc(N(C)C)c3)n2)CC1 [185e, 4-((4-((3-(Dimethylamino)benzyl)oxy)-2-(4-(hex-5-yn-1-yl)piperazin-1-yl)pyrimidin-5-yl)thio)benzamide] |
| 0.2 to 0.4 µM | COc1cccc(COc2nc(N3CCOCC3)ncc2Sc2ccc(C(N)=O)cc2)c1 [190a, 4-((4-((3-Methoxybenzyl)oxy)-2-morpholinopyrimidin-5-yl)thio)benzamide] |
| 0.2 to 0.4 µM | COc1cccc(COc2nc(N3CCN(C(C)C)CC3)ncc2Sc2ccc(C(N)=O)cc2)c1 [190b, 4-((2-(4-Isopropylpiperazin-1-yl)-4-((3-methoxybenzyl)oxy)pyrimidin-5-yl)thio)benzamide] |
| < 0.2 µM | COc1cccc(COc2nc(N3CC[C@@H](N(C)C)C3)ncc2Sc2ccc(C(N)=O)cc2)c1 [190e, (R)-4-((2-(3-(dimethylamino)pyrrolidin-1-yl)-4-((3-methoxybenzyl)oxy)pyrimidin-5-yl)thio)benzamide] |
| ≥ 1.2 µM | COc1cccc(COc2nc(N(C)CCN(C)C)ncc2Sc2ccc(C(N)=O)cc2)c1 [190g, 4-((2-((2-(Dimethylamino)ethyl)(methyl)amino)-4-((3-methoxybenzyl)oxy)pyrimidin-5-yl)thio)benzamide] |
| ≥ 1.2 µM | COc1cccc(COc2nc(N3CCCN(C)CC3)ncc2Sc2ccc(C(N)=O)cc2)c1 [190h] |
| < 0.2 µM | C#CCCCCN1CCN(c2ncc(Sc3ccc(C(N)=O)cc3)c(OCc3cccc(OC)c3)n2)CC1 [190j, 4-((2-(4-(Hex-5-yn-1-yl)piperazin-1-yl)-4-((3-methoxybenzyl)oxy)pyrimidin-5-yl)thio)benzamide] |
| < 0.2 µM | C#CCCCN1CCN(c2ncc(Sc3ccc(C(N)=O)cc3)c(OCc3cccc(OC)c3)n2)CC1 [190k, 4-((4-((3-Methoxybenzyl)oxy)-2-(4-(pent-4-yn-1-yl)piperazin-1-yl)pyrimidin-5-yl)thio)benzamide] |
| < 0.2 µM | COc1cccc(COc2nc(N3CC(N(C)C)C3)ncc2Sc2ccc(C(N)=O)cc2)c1 [190m, 4-((2-(3-(Dimethylamino)azetidin-1-yl)-4-((3-methoxybenzyl)oxy)pyrimidin-5-yl)thio)benzamide] |
| 0.2 to 0.4 µM | C#CC(C)N1CCN(c2ncc(Sc3ccc(C(N)=O)cc3)c(OCc3cccc(OC)c3)n2)CC1 (centres unmarked) [190n, 4-((2-(4-(But-3-yn-2-yl)piperazin-1-yl)-4-((3-methoxybenzyl)oxy)pyrimidin-5-yl)thio)benzamide] |
